The values that follow come from US20150005281A1, “PYRIMIDINE-2,4-DIAMINE DERIVATIVES AS KINASE INHIBITORS” (Cellzome Limited, priority 2011, published 2015).

The conditions of assay [1]: Changelian et al., 2003; cited from earlier work.
For assay [2] the following is noted: Cetkovic-Cvrlje and Ucken, 2004; cited from earlier work.
For assay [3] the following is noted: NOD mouse; cited from earlier work.
The target of a further assay is T1, JAK1 (Homo sapiens, UniProt P23458).
T1 construct: endogenous in cells; host or cells: Molt4 (ATCC CRL-1582) and Ramos (ATCC CRL-1596) cells; mixed lysate 1:2
Kind of assay: Kinobeads assay with immunodetection, JAK1. The note with it: for IC50: Kinobeads assay, mixed Molt4/Ramos lysate, read-out: Inhibition values (IC50) JAK1. It counts as binding. The procedure, abridged:
(§1)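 Mixed Molt4/Ramos lysate (1:2, 10 mg/mL protein) incubated 3 h in the cold with compound (1:3 series from 5 mM DMSO stock) and immobilized aminopyrido-pyrimidine Kinobeads. Bead-bound JAK1, JAK2, JAK3 and TYK2 eluted and quantified by antibody dot blot (Odyssey), IC50 from dose-response curves.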

A further assay deals with T2, JAK2 (Homo sapiens, UniProt O60674).
T2 construct: endogenous in cells; host or cells: Molt4 (ATCC CRL-1582) and Ramos (ATCC CRL-1596) cells; mixed lysate 1:2
Nature of the assay: Kinobeads assay with immunodetection, JAK2. It is filed as binding. The note with it: mixed Molt4/Ramos lysate, read-out: Inhibition values (IC50) JAK2. The procedure, abridged: as §1

For another assay, the target named is T3, TYK2 (Homo sapiens, UniProt P29597).
T3 construct: endogenous in cells; host or cells: Molt4 (ATCC CRL-1582) and Ramos (ATCC CRL-1596) cells; mixed lysate 1:2
Kind of assay: Kinobeads assay with immunodetection, TYK2. It counts as binding. The note with it: Kinobeads assay, mixed Molt4/Ramos lysate; read-out: Inhibition values (IC50) Tyk2. Summed up: as §1

The target of another assay is T4, JAK3 (Homo sapiens, UniProt P52333).
T4 construct: endogenous in cells; host or cells: Molt4 (ATCC CRL-1582) and Ramos (ATCC CRL-1596) cells; mixed lysate 1:2
T4 sequence (P52333 1-1124): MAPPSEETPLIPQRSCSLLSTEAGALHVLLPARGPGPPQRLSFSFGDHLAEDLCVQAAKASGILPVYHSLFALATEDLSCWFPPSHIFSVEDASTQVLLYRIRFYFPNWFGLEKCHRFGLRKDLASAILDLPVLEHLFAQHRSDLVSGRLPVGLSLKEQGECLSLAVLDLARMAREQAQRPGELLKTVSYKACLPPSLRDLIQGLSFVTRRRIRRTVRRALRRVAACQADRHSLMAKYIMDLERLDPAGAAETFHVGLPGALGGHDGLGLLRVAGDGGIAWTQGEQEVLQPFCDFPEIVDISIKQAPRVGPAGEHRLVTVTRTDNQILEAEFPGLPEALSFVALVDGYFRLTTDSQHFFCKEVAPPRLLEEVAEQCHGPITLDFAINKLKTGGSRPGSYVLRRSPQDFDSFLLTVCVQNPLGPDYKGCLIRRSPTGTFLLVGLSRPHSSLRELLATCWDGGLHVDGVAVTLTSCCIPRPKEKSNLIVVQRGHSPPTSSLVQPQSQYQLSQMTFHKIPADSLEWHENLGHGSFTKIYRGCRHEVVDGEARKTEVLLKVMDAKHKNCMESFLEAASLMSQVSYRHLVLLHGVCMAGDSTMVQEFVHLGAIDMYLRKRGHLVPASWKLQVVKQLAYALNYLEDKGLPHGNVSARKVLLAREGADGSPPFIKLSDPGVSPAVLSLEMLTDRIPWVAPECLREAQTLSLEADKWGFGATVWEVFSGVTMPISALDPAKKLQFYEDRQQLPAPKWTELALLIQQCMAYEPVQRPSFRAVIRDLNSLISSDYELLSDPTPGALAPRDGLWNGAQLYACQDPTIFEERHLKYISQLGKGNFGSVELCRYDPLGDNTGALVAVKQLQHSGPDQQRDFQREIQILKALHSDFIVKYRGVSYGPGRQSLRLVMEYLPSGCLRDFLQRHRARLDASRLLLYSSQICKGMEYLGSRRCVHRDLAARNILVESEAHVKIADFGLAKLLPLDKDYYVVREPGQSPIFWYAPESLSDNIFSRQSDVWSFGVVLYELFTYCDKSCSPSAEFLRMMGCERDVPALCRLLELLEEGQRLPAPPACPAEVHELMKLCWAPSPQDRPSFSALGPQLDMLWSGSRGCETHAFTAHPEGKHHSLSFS
Nature of the assay: Kinobeads assay with immunodetection, JAK3. It counts as binding. The note with it: Kinobeads assay, mixed Molt4/Ramos lysate; read-out: Inhibition values (IC50) JAK3. The procedure, abridged: as §1

T2 sequence (O60674 whole entry): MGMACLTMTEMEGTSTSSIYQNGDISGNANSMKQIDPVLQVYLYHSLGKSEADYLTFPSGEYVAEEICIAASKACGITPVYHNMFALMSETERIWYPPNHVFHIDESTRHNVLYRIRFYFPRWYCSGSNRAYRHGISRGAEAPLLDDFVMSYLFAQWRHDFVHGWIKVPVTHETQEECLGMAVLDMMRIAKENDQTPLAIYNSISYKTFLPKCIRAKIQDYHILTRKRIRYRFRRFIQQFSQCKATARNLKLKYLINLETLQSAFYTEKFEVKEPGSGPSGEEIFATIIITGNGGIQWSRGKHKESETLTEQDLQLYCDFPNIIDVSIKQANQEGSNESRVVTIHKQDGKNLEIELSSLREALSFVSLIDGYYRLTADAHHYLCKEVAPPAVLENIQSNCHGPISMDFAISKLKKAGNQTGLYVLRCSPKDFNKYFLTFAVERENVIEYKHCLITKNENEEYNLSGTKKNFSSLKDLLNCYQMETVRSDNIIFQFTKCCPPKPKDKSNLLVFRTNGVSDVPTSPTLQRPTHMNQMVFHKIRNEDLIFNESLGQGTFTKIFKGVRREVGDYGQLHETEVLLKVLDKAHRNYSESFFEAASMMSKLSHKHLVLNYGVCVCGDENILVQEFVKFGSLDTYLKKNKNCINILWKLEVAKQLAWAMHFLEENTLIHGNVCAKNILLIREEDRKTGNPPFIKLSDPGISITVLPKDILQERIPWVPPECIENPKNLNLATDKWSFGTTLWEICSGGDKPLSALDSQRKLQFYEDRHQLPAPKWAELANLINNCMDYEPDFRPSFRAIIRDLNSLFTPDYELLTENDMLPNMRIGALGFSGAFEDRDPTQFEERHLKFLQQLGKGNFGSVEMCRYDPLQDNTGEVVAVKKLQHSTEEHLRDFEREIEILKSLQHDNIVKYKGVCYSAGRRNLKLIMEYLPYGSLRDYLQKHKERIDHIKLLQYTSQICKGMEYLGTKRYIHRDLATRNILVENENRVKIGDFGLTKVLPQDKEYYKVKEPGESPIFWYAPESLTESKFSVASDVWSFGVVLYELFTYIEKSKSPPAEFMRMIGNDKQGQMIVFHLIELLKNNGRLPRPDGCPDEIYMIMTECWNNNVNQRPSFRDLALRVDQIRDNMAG
T1 sequence (P23458 whole entry): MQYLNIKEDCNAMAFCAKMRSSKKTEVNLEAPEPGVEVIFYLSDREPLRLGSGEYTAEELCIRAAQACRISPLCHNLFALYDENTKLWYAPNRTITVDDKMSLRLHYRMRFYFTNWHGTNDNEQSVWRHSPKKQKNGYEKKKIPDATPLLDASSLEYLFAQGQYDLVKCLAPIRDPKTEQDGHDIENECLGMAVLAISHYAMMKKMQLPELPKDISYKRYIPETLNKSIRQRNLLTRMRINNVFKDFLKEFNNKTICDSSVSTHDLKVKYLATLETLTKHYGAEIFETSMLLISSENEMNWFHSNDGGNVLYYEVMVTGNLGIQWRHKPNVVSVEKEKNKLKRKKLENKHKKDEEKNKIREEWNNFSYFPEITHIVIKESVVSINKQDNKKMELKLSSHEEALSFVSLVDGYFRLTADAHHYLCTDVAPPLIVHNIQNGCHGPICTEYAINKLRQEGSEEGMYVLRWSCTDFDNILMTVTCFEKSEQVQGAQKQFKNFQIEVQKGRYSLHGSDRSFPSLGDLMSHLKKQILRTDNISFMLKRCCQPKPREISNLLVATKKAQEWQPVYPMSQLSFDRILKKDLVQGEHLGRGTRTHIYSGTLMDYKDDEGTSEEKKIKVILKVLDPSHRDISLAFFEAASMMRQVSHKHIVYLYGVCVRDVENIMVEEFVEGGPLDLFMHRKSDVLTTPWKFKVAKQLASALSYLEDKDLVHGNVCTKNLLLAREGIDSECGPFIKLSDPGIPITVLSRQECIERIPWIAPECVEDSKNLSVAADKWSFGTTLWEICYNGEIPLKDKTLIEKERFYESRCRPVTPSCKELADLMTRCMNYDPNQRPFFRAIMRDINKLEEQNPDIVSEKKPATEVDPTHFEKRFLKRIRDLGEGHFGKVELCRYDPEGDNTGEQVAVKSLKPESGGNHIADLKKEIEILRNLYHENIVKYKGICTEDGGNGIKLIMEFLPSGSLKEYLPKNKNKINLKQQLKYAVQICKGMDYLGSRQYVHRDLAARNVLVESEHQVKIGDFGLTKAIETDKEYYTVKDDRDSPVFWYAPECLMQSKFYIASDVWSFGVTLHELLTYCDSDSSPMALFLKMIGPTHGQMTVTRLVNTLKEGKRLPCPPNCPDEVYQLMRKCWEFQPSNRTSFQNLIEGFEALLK
T3 sequence (P29597 whole entry): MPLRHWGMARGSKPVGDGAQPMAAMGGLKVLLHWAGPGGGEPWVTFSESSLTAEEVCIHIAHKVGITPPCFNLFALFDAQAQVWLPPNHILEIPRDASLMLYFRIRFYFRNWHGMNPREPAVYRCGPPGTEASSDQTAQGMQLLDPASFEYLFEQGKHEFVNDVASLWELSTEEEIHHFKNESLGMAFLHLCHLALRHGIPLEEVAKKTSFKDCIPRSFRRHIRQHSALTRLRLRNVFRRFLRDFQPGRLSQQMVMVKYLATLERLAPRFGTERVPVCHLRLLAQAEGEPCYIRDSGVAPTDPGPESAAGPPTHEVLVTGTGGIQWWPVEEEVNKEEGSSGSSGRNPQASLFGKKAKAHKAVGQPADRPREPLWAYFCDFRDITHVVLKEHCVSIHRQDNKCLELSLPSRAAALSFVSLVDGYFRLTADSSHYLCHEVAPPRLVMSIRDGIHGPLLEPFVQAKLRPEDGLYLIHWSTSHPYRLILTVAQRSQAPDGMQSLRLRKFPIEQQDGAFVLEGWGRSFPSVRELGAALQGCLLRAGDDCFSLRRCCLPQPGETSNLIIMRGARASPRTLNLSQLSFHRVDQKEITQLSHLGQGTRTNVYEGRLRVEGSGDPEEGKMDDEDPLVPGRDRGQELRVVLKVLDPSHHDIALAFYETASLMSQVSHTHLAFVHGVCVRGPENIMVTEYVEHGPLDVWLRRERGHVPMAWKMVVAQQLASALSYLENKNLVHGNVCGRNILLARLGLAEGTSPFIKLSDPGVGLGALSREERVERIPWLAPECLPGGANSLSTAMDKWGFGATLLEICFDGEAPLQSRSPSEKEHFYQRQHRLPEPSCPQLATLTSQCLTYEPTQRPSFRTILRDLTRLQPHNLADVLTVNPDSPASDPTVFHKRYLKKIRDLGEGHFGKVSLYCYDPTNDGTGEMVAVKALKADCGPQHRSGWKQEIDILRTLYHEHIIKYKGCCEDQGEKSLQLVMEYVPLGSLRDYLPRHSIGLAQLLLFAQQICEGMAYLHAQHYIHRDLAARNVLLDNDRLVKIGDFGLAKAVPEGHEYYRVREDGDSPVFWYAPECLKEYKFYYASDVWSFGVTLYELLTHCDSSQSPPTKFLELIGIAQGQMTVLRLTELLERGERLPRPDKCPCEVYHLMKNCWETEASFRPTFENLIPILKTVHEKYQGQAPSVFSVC

For `C[C@@H]1CCN(C(=O)CC#N)C[C@@H]1N(C)c1ncnc2[nH]ccc12` [CP-690,550], in assay [1], the “efficacy in organ transplantation model” value is recorded as “efficacy”.

Take `COc1cc2ncnc(Nc3ccc(O)cc3)c2cc1OC` [JANEX-1]: the “severity of GVHD” value in assay [2] is recorded as “attenuate the severity of GVHD”. In addition, the “spontaneous autoimmune diabetes development” value in assay [3] is “prevent spontaneous autoimmune diabetes development”.

In the case of `CC(=O)N1CC[C@@H](CNc2nc(Nc3cnn(CCO)c3)ncc2Cl)C1` [Example 27, (S)-1-(3-(((5-chloro-2-((1-(2-hydroxyethyl)-1H-pyrazol-4-yl)amino)pyrimidin-4-yl)amino)methyl)pyrrolidin-1-yl)ethanone], the “Selectivity ratio over JAK2, JAK1” value at JAK1 is “JAK1 = 23”. In addition, the IC50 at JAK1 is 100 to 1000 nM; on JAK2 it was 1000 to 10000 nM; at TYK2, 100 to 1000 nM; at JAK3, 100 to 1000 nM.

Turning to `CC(=O)N1CCC[C@@H]1CNc1nc(Nc2cnn(CCO)c2)ncc1Cl` [Example 2, (R)-1-(2-(((5-chloro-2-((1-(2-hydroxyethyl)-1H-pyrazol-4-yl)amino)pyrimidin-4-yl)amino)methyl)pyrrolidin-1-yl)ethanone], the “Selectivity ratio over JAK2, JAK1” value on JAK1 was “JAK1 = 6”. For the same compound, the IC50 is under 100 nM at JAK1, 100 to 1000 nM on JAK2, under 100 nM on TYK2 and under 100 nM on JAK3.

Turning to `Cc1cnc(Nc2cnn(C)c2)nc1NC[C@@H]1C[C@H](F)CN1C(=O)CC#N` [Example 103, 3-((2S,4S)-4-fluoro-2-(((5-methyl-2-((1-methyl-1H-pyrazol-4-yl)amino)pyrimidin-4-yl)amino)methyl)pyrrolidin-1-yl)-3-oxopropanenitrile], at JAK1, the “Selectivity ratio over JAK2, JAK1” value is “JAK1 = 150”. Also, the concentration for half-maximal inhibition (IC50) at JAK1 was under 100 nM; on JAK2 it was over 10000 nM; at TYK2 it was 100 to 1000 nM; at JAK3 it was 100 to 1000 nM.

Take `CS(=O)(=O)N1CC(CNc2nc(Nc3cnn(CCO)c3)ncc2Cl)C1` [Example 19, 2-(4-((5-chloro-4-(((1-(methylsulfonyl)azetidin-3-yl)methyl)amino)pyrimidin-2-yl)amino)-1H-pyrazol-1-yl)ethanol]: the 50% inhibitory concentration (IC50) at JAK1 is 100 to 1000 nM; at JAK2, 1000 to 10000 nM; on TYK2, 100 to 1000 nM; on JAK3, under 100 nM.

Take `Cn1cc(Nc2ncc(Cl)c(NC[C@@H]3C[C@H](F)CN3CCC#N)n2)cn1` [Example 90, 3-((2S,4S)-2-(((5-chloro-2-((1-methyl-1H-pyrazol-4-yl)amino)pyrimidin-4-yl)amino)methyl)-4-fluoropyrrolidin-1-yl)propanenitrile]: at JAK1, the “Selectivity ratio over JAK2, JAK1” value is given as “JAK1 = 23”. Moreover, the IC50 at JAK1 is under 100 nM; on JAK2, 100 to 1000 nM; on TYK2, under 100 nM; on JAK3, under 100 nM.
